Assay results taken from ChEMBL document CHEMBL3885881, “DrugMatrix”.

Species on record: Rattus norvegicus
Test: DrugMatrix - Regimen: Daily Repeat
Type: toxicity, organism-based, Sprague-Dawley
Set-up: regimen Daily Repeat, gender Male, age 6-8 weeks
Settings: in vivo, po, route oral GAVAGE, […]; for ABSOLUTE BASOPHIL / ABSOLUTE EOSINOPHIL / ABSOLUTE LYMPHOCYTE / ABSOLUTE MONOCYTE / ABSOLUTE SEGMENTED NEUTROPHIL / BASOPHIL / EOSINOPHIL / ERYTHROCYTE COUNT / HEMATOCRIT / HEMOGLOBIN / LEUKOCYTE COUNT / LYMPHOCYTE / MEAN CORPUSCULAR HEMOGLOBIN / MEAN CORPUSCULAR HEMOGLOBIN CONCENTRATION / MEAN CORPUSCULAR VOLUME / MONOCYTE / NEUTROPHIL / NUCLEATED RED BLOOD CELLS / PLATELET COUNT: tissue Blood; for ALANINE AMINOTRANSFERASE / ALKALINE PHOSPHATASE / ASPARTATE AMINOTRANSFERASE / BLOOD UREA NITROGEN / CARBON DIOXIDE / CHLORIDE / CHOLESTEROL / CREATINE PHOSPHOKINASE / CREATININE / GLUCOSE / LACTATE DEHYDROGENASE / LIPASE / PHOSPHORUS / POTASSIUM / SODIUM / TOTAL BILIRUBIN / TOTAL PROTEIN / URIC ACID: tissue Plasma
[1] = 0 mg/kg, 72 h, dose level Control, time 3 day
[2] = 0 mg/kg, dose level Control, time 7 day
[3] = 100 mg/kg, 72 h, dose level Low, time 3 day

Cc1ccc(C)c(OCCCC(C)(C)C(=O)O)c1 [GEMFIBROZIL] was tested, and the “ABSOLUTE BASOPHIL” value [1] was 0 CELLS/uL, the “ABSOLUTE EOSINOPHIL” value [1] was 37.33 CELLS/uL and the “ABSOLUTE LYMPHOCYTE” value [1] was 6295.33 CELLS/uL. The “ABSOLUTE MONOCYTE” value [1] was 122.17 CELLS/uL, the “ABSOLUTE SEGMENTED NEUTROPHIL” value [1] was 861.83 CELLS/uL and the BASOPHIL [1] was 0%. For the same compound, the EOSINOPHIL [1] was 0.5%, the “ERYTHROCYTE COUNT” value [1] was 5.2 x10E6/uL and the HEMATOCRIT [1] was 32.58%. The HEMOGLOBIN [1] was 12.95 G/DL, the “LEUKOCYTE COUNT” value [1] was 7.32 x10E3/uL and the LYMPHOCYTE [1] was 86%. For the same compound, the “MEAN CORPUSCULAR HEMOGLOBIN” value [1] was 24.93 pg, the “MEAN CORPUSCULAR HEMOGLOBIN CONCENTRATION” value [1] was 39.77 G/DL and the “MEAN CORPUSCULAR VOLUME” value [1] was 62.65 fL. For the same compound, the MONOCYTE [1] was 1.67%, the NEUTROPHIL [1] was 11.83% and the “NUCLEATED RED BLOOD CELLS” value [1] was 0 /100WBC. For the same compound, the “PLATELET COUNT” value [1] was 1029 x10E3/uL, the “ALANINE AMINOTRANSFERASE” value [1] was 63.67 u/L and the “ALKALINE PHOSPHATASE” value [1] was 329.83 u/L. For the same compound, the “ASPARTATE AMINOTRANSFERASE” value [1] was 77.67 u/L, the “BLOOD UREA NITROGEN” value [1] was 18 mg/dL and the “CARBON DIOXIDE” value [1] was 29.67 mmol/L. The CHLORIDE [1] was 102.67 MEQ/L, the CHOLESTEROL [1] was 64.5 mg/dL and the “CREATINE PHOSPHOKINASE” value [1] was 178.67 u/L. The CREATININE [1] was 0.18 mg/dL, the GLUCOSE [1] was 163.83 mg/dL and the “LACTATE DEHYDROGENASE” value [1] was 75.83 u/L. For the same compound, the LIPASE [1] was 10 u/L, the PHOSPHORUS [1] was 8.28 mg/dL and the POTASSIUM [1] was 4.79 MEQ/L. The SODIUM [1] was 142.22 MEQ/L, the “TOTAL BILIRUBIN” value [1] was 0.22 mg/dL and the “TOTAL PROTEIN” value [1] was 5.78 G/DL. The “URIC ACID” value [1] was 0.87 mg/dL, the “ABSOLUTE BASOPHIL” value [2] was 0 CELLS/uL and the “ABSOLUTE EOSINOPHIL” value [2] was 19 CELLS/uL. For the same compound, the “ABSOLUTE LYMPHOCYTE” value [2] was 7803.5 CELLS/uL, the “ABSOLUTE MONOCYTE” value [2] was 117.83 CELLS/uL and the “ABSOLUTE SEGMENTED NEUTROPHIL” value [2] was 1093 CELLS/uL. For the same compound, the BASOPHIL [2] was 0%, the EOSINOPHIL [2] was 0.17% and the “ERYTHROCYTE COUNT” value [2] was 5.84 x10E6/uL. For the same compound, the HEMATOCRIT [2] was 35.75%, the HEMOGLOBIN [2] was 13.87 G/DL and the “LEUKOCYTE COUNT” value [2] was 9.03 x10E3/uL. For the same compound, the LYMPHOCYTE [2] was 87.17%, the “MEAN CORPUSCULAR HEMOGLOBIN” value [2] was 23.78 pg and the “MEAN CORPUSCULAR HEMOGLOBIN CONCENTRATION” value [2] was 38.8 G/DL. For the same compound, the “MEAN CORPUSCULAR VOLUME” value [2] was 61.25 fL, the MONOCYTE [2] was 1.17% and the NEUTROPHIL [2] was 11.5%. For the same compound, the “NUCLEATED RED BLOOD CELLS” value [2] was 0 /100WBC, the “PLATELET COUNT” value [2] was 1098.67 x10E3/uL and the “ALANINE AMINOTRANSFERASE” value [2] was 66 u/L. For the same compound, the “ALKALINE PHOSPHATASE” value [2] was 291.83 u/L, the “ASPARTATE AMINOTRANSFERASE” value [2] was 80.5 u/L and the “BLOOD UREA NITROGEN” value [2] was 15.67 mg/dL. For the same compound, the “CARBON DIOXIDE” value [2] was 30 mmol/L, the CHLORIDE [2] was 101.67 MEQ/L and the CHOLESTEROL [2] was 69.67 mg/dL. The “CREATINE PHOSPHOKINASE” value [2] was 363.33 u/L, the CREATININE [2] was 0.25 mg/dL and the GLUCOSE [2] was 146.5 mg/dL. For the same compound, the “LACTATE DEHYDROGENASE” value [2] was 219.67 u/L, the LIPASE [2] was 11.33 u/L and the PHOSPHORUS [2] was 10.08 mg/dL. The POTASSIUM [2] was 5.22 MEQ/L, the SODIUM [2] was 144.67 MEQ/L and the “TOTAL BILIRUBIN” value [2] was 0.12 mg/dL. For the same compound, the “TOTAL PROTEIN” value [2] was 6.33 G/DL, the “URIC ACID” value [2] was 0.75 mg/dL and the “ABSOLUTE BASOPHIL” value [3] was 0 CELLS/uL. For the same compound, the “ABSOLUTE EOSINOPHIL” value [3] was 135 CELLS/uL, the “ABSOLUTE LYMPHOCYTE” value [3] was 14816.33 CELLS/uL and the “ABSOLUTE MONOCYTE” value [3] was 381.17 CELLS/uL. The “ABSOLUTE SEGMENTED NEUTROPHIL” value [3] was 1317.5 CELLS/uL, the BASOPHIL [3] was 0% and the EOSINOPHIL [3] was 0.67%. The “ERYTHROCYTE COUNT” value [3] was 5.65 x10E6/uL, the HEMATOCRIT [3] was 35.43% and the HEMOGLOBIN [3] was 14.12 G/DL. For the same compound, the “LEUKOCYTE COUNT” value [3] was 16.65 x10E3/uL, the LYMPHOCYTE [3] was 89% and the “MEAN CORPUSCULAR HEMOGLOBIN” value [3] was 25.02 pg. The “MEAN CORPUSCULAR HEMOGLOBIN CONCENTRATION” value [3] was 39.85 G/DL, the “MEAN CORPUSCULAR VOLUME” value [3] was 62.8 fL and the MONOCYTE [3] was 2.33%. For the same compound, the NEUTROPHIL [3] was 8%, the “NUCLEATED RED BLOOD CELLS” value [3] was 0 /100WBC and the “PLATELET COUNT” value [3] was 1185.67 x10E3/uL. For the same compound, the “ALANINE AMINOTRANSFERASE” value [3] was 52.83 u/L, the “ALKALINE PHOSPHATASE” value [3] was 423.5 u/L and the “ASPARTATE AMINOTRANSFERASE” value [3] was 76.17 u/L. The “BLOOD UREA NITROGEN” value [3] was 14.67 mg/dL, the “CARBON DIOXIDE” value [3] was 31 mmol/L and the CHLORIDE [3] was 101.5 MEQ/L. For the same compound, the CHOLESTEROL [3] was 48 mg/dL, the “CREATINE PHOSPHOKINASE” value [3] was 304.5 u/L and the CREATININE [3] was 0.2 mg/dL. The GLUCOSE [3] was 145.83 mg/dL, the “LACTATE DEHYDROGENASE” value [3] was 103.67 u/L and the LIPASE [3] was 11.17 u/L. For the same compound, the PHOSPHORUS [3] was 11.08 mg/dL, the POTASSIUM [3] was 6.55 MEQ/L and the SODIUM [3] was 142.47 MEQ/L. The “TOTAL BILIRUBIN” value [3] was 0.2 mg/dL, the “TOTAL PROTEIN” value [3] was 5.9 G/DL and the “URIC ACID” value [3] was 1.3 mg/dL.
